In US5837728A, “9-cis retinoic acid esters and amides and uses thereof” (priority 1995, dated 1998):

Columns and labels:
retinoid receptors = settings: all six subfamilies of retinoid receptors; cited from earlier work
sebaceous gland = test: Oral hamster sebaceous gland reduction assay; assay type: in vivo, male Syrian golden hamsters; set-up: key to the marks not given beside the values; settings: 32 mg/kg
Method: An oral assay for hamster sebaceous gland reduction is conducted.
Hamsters are dosed orally with the test compound and vehicle alone. The reduction in sebaceous gland size is estimated microscopically in relation to the control. The assay is unique and proprietary to Ortho Pharmaceutical Corp. and is based upon the work of Plewig et al. (1977) and Gomex et al. (1980). Plewig, et al., Hamster Ear Model for Sebaceous Glands, J. Invest. Derm. 68: 171-176 (1977). Gomez, et al., Effect of 13-cis-Retinoic Acid on the Hamster Flank Organ, J. Invest. Derm. 74: 392-397 (1980).
For oral (p.o.) studies, male Syrian golden hamsters are […] at 5 ml/kg, once daily, five consecutive days/week for two or three weeks. Modified but similar dosing schedules could be used. Control hamsters are dosed with vehicle alone at 5 ml/kg. Following final treatment (up to 72 hours), the hamsters are sacrificed in a CO2 atmosphere. Samples of each test site are placed into 10% buffered formalin and histologically prepared. Serial sections of each sample are stained (H&E) and examined microscopically.
The reduction in sebaceous gland size is estimated microscopically in relation to the control treated sites. To quantify sebaceous gland size, cross-sectional areas are measured with an image analyzer system.

[1] = test system: skin (inner forearm, cheek); test: Topical assay for comparative dermal irritation in human subjects; assay type: in vivo, human (patients)
Method: 2-(9-cis-retinoyloxy)-4-methoxyacetophenone is evaluated in a study of its potential to produce dermal irritation. Comparisons are made of tretinoin, isotretinoin, 2-(9-cis-retinoyloxy)-4-methoxyacetophenone, and the vehicle solution.
In the first test, four solutions are used. The control consists of vehicle solution, namely a solution of 60% by volume ethanol and 40% by volume polyethylene glycol. The other three solutions are 0.025% solutions of tretinoin, isotretinoin, or 2-(9-cis-retinoyloxy)-4-methoxyacetophenone in 60% by volume ethanol and 40% by volume polyethylene glycol. Four patients paint two saturated cotton swabs of each of the four solutions on four different areas of the inner forearm, twice daily for ten days.
In the second test, four other solutions are used. The control consists of vehicle solution, namely a solution of 90% by volume ethanol and 10% by volume polyethylene glycol. The other three solutions are 0.075% solutions of tretinoin, isotretinoin, or 2-(9-cis-retinoyloxy)-4-methoxyacetophenonein 90% by volume ethanol and 10% by volume polyethylene glycol. Four patients paint two saturated cotton swabs of each of the four solutions on four different areas of the inner forearm, twice daily for ten days. Only one subject experiences an irritant reaction. […] By day nine, both areas are still reacting, the tretinoin area more intensely than the isotretinoin area. There is no reaction in either the 2-(9-cis-retinoyloxy)-4-methoxyacetophenone or the control areas.
In the third test, three solutions are used. The three solutions are 0.075% solutions of tretinoin, isotretinoin, or 2-(9-cis-retinoyloxy)-4-methoxyacetophenone in 90% by volume ethanol and 10% by volume polyethylene glycol. Four patients paint two saturated cotton swabs of the 2-(9-cis-retinoyloxy)-4-methoxyacetophenone solution twice daily on one cheek of their faces. To the other cheek they apply two saturated cotton swabs of either tretinoin or isotretinoin.
The tests are carried out in double-blind fashion, that is, neither the subjects nor the investigator know the contents of the solutions during the study.
Clinical assessments are made daily of the subjects cheeks. All subjects develop irritant reactions by the third or fourth day of the study.

[2] = test system: ornithine decarboxylase (ODC); test: ODC/Retinoid Bioassay: inhibition of TPA induced ornithine decarboxylase activity; assay type: in vivo, CD-1 mice; settings: topical, 1.7 nM (as printed in Table 2), TPA induced
Method: The ODC/Retinoid Bioassay is based on the method of Verma, A. K. and Boutwell, R. K., Cancer Res. (1977) 37:2196-2201. The ODC assay measures a compounds effect on the prevention of the induction of ODC, namely the effect of the retinoid compound on the inhibition of the tumor promoter 12-O-tetradecanoylphorbol-13-acetate (TPA) induced ODC activity. The assay is carried out using CD-1 mice (aged 7 to 9 weeks). The dorsal hair of the mice is shaved 3-4 days before testing. Four mice are used for each point. The test retinoids, at one of two dose levels (1.7 and 17 nmoles) dissolved in 0.2 ml of acetone is applied topically to the back of each shaved mouse. A single dose of TPA ([…]) is applied to the back of each treated mouse 30 minutes later. Control groups are treated with either acetone alone, TPA, or tretinoin. The mice are sacrificed by cervical dislocation 5 hours after TPA treatment.
The dorsal skin encompassing the shaved and TPA exposed area is excised and placed in a 100 ml beaker containing distilled water maintained at 51° C.-57° C. The skin is soaked for 50-70 seconds at this temperature with intermittent stirring. The skin is placed epidermis side up in a chilled (0°-5° C.) stainless steel plate and the epidermal layer is scraped off with a razor blade. The epidermal layers from the 4 mice are pooled and placed in a homogenization tube with 2 ml of ODA buffer ([…] with […] pyridoxal phosphate, […] ethylenediaminetetraacetic acid (EDTA), 1 mM dithiothreitol, pH 7.5). The pooled epidermal layers are homogenized for 15 seconds at 0° C. using a Polytron homogenizer at a setting of 7.5. The homogenate is centrifuged at 30,000×g and the supernatant fraction is pipetted into a storage tube and frozen for about 72 hours.
The homogenate is assayed for ODC activity as described by Verma and Boutwell to measure the release of ^14 CO2 from labeled DL(1-14C) ornithine. Incubations are carried out in disposable centrifuge tubes with center well holders containing filter paper impregnated with sodium hydroxide to absorb ^14 CO2. The incubation mixture consisted of 90 μl of L-ornithine, 350 μl of ODC buffer, 100 μl of 14C-ornithine (1.32 nm, Sp. Act:4.4 pCi/pM) and 10 μl of test sample. After incubation at 37° C. for 45 minutes, 0.5 ml of 2M chilled citric acid (4° C.) is added and incubation is continue for an additional 30 minutes to insure complete absorption of ^14 CO2. The filter paper is removed from the center well holders and set in 1 ml of water in capped scintillation vials for at least 1 hour before adding RBI 3820 scintillation cocktail. Radioactivity is measured in a Tri Carb Scintillation Counter. Results are expressed as pmol of ^14 CO2 released in 30 minutes per milligram of protein based on the specific activity of DL-14C-ornithine. The results are expressed in Table 2 below as the % reduction in ODC activity as compared to the control, for the compounds of each of the preceding Examples: […]

[3] = test system: ulceration of both lower legs; settings: one patient, livedoid vasculitis; cited from earlier work
[4] = test system: donor sites (partial-thickness wounds); settings: average, silver sulfadiazine cream containing epidermal growth factor; cited from earlier work

In the case of `CC1=C(/C=C/C(C)=C\C=C\C(C)=C\C(=O)O)C(C)(C)CCC1` [9-cis-retinoic acid], the “Equilibrium constants in competitive binding” value (retinoid receptors) is given as “lowest equilibrium constants of all retinoids for all six subfamilies of retinoid receptors”.

In the case of `CC1=C(/C=C/C(C)=C/C=C/C(C)=C\C(=O)O)C(C)(C)CCC1` [13-cis-retinoic acid], the Sebaceous gland reduction (sebaceous gland) is reported as “++”, the “Irritant reactions, inner forearm” value ([1]; first test, 0.025% solution, twice daily for ten days) is reported as “No irritant reactions occur” and the “Irritant reaction, inner forearm” value ([1]; second test, 0.075% solution, twice daily for ten days, one subject of four reacted) is reported as “On day seven, the isotretinoin area begins reacting with redness and peeling”. The “Irritation of the cheeks” value ([1]; third test, 0.075% solution, twice daily, six days) was “reactions which are so intense with redness and peeling that all subjects discontinue application on or before the sixth day”.

With `CCCCCCCCCC(=O)OCC(=O)COC(=O)/C=C(C)/C=C/C=C(C)\C=C\C1=C(C)CCCC1(C)C` [Compound 3, 1-(9-cis-retinoyloxy)-3-decanoylyoxy-2-propanone] the ODC activity reduction [2] was “+++” and the Sebaceous gland reduction (sebaceous gland) was “+++”.

For `O=C(c1ccc(F)cc1)C1CCN(CCn2c(=O)[nH]c3ccccc3c2=O)CC1` [Ketanserin], the “Effect on recalcitrant ulceration” value [3] is given as “healed the lesions in a patient with recalcitrant ulceration of both lower legs”.

In the case of epidermal growth factor, the “Acceleration of donor site healing time” value [4] is listed as 1.5 days.
